Measured values: US20060040253A1, “Use of Smad3 inhibitor in the treatment of fibrosis dependent on epithelial to mesenchymal transition as in the eye and kidney” (priority 2003, published 2006)

What was measured:
[1] = system: primary porcine RPE cells; test: EMT in primary cultures of porcine RPE cells (αSMA immunostaining); assay type: cell-based; details: TGF-β2 10 ng/ml, 48 hr; not in its absence
Experimental: Cultures of primary porcine RPE cells were prepared by aspirating RPE layers from a hemi-sectioned pig eye after removing the retina by using a micropipette, and putting the aspirate in a 30-mm diameter collagen-coated plastic culture dish to allow the epithelial cells to outgrow. After reaching confluence, the cells were trypsinized, suspended in Dulbecco's modified Eagle's essential medium (DMEM) supplemented with 10% fetal calf serum, and seeded on fibronectin-coated chamber slides (Falcon, Becton Dickinson, Lincoln Park, N.J.) in the presence and absence of 10 ng/ml of porcine TGF-β2 (R & D systems Inc., Minneapolis, Minn.). At 24 hr culture intervals the cells were fixed and immunostained for αSMA.

lens epithelium = test: Organ-culture of mouse lenses with TGF-β2; assay type: cell-based; details: TGF-β2 10 ng/ml, not KO
Experimental: The crystalline lens was carefully removed from enucleated eyes of adult Smad3-KO or WT mice and processed for organ-culture as previously described (Saika, S. et al. 2003 Invest Ophthalmol Vis Sci 44: 2094-2102). Three lenses were used in each culture condition. The lens was incubated in DMEM supplemented with antibiotics in the presence and absence of porcine TGF-β2 (10 ng/ml) with a medium change every 2 days. After 5 or 10 days of culture, the tissue was fixed in 2.0% paraformaldehyde as described above. Paraffin sections were processed for histology and immunohistochemistry.
Sections (5 μm) were deparaffinized and stained with hematoxylin and eosin (HE) alone or with polyclonal antibodies against collagen types I and V (both 1:100 dilution in PBS, Southern Biotechnology, Birmingham, Ala.), rabbit polyclonal anti-lumican antibody (10 μg/ml)(Saika, S. et al. 2000 J Biol Chem 275: 2607-2612), or with a mouse monoclonal anti-αSMA antibody (1:100 dilution in PBS, NeoMarker, Fremont, Calif., USA), rabbit polyclonal antibodies against the TGF-β isoforms as previously reported (Flanders, K. C. et al. 1991 Development 113: 183-191), or with non-immune IgG (control). After binding of labeled secondary antibody and the color reaction with 3,3′-diaminobenzidine, sections were counterstained with methyl green and mounted in balsam. […]

ARPE-19 cells [2] = test: ARPE-19 cell migration, in vitro closure of a defect in a monolayer cell sheet; assay type: cell-based, human; details: TGF-β2 1.0 ng/ml; 24 hrs for the untreated culture
Description: (§1) The ARPE-19 human RPE cell line (ATCC # CRL-2302) (Dunn, K. C. et al. 1996 Exp Eye Res 62:155-169) was used to assess effects of […] TGF-β2 on expression of αSMA and Smad3 activation as previously described (EXAMPLE 1). Effect of addition of TGF-β2 on ARPE-19 cell migration was examined by using a model of in vitro closure of a monolayer cell sheet as previously reported (Saika, S. et al. 1995 Graefes Arch Clin Exp Ophthalmol 233:347-353).

ARPE-19 cells [3] = test: Production of PDGF, TGF-β1 and collagen type I in ARPE-19 cells treated with TGF-β2; assay type: cell-based, human; details: for amount of type I collagen in culture medium and cell lysate (ELISA): 48 hr
Experimental: Expression of PDGF-BB in ARPE-19 cells was assessed by western blot of cell lysates using PDGF-B (H-55, Santa Cruz Biotechnology, Inc.). Enzyme-linked immunosorbent assays (ELISAs) for PDGF-BB, PDGF-AB and TGF-β1 (R & D Systems, Inc., Minneapolis, Minn.) were used to determine the concentration of each peptide in the culture medium. ARPE-19 cells were grown in 6-well plates to near confluence and then cultured in 500 μl of serum-free DMEM/F-12 supplemented with antibiotics in the presence or absence of human recombinant TGF-β2 (1.0 ng/ml R & D Systems, Inc., Minneapolis, Minn.) for 48 or 96 hrs. Nine wells were prepared for each culture condition. Medium was processed for ELISAs for determination of the concentration of PDGF-BB and -AB according to the manufacturers' protocols. Medium (48 hr) was also processed for the determination of TGF-β1 by an ELISA kit (R & D Systems, Minneapolis, Minn.). Type I collagen was quantified in medium and sonicated cell lysates (48 hr) and processed for an ELISA system for type I collagen C-terminal peptide (PIP ELISA kit, Takara, Tokyo, Japan). Confluent cells grown on a chamber slides (Nunc) were immunostained for collagen type I (1:100 dilution in PBS, Southern Biotechnology).

ARPE-19 cells [4] = test: Proliferation of ARPE-19 cells (MTT assay); assay type: cell-based, human; details: sparse cultures, up to 120 hr; PDGF-BB 5 ng/ml, TGF-β2 1 ng/ml
Experimental: Effects of adding TGF-β2, PDGF-BB, and/or anti-PDGF-B-neutralizing antibody on proliferation of ARPE-19 cells were assessed using the MTT assay (TACS MTT Cell Proliferation Assay Kit, Trevigen, Gaithersburg, Md., USA) according to manufacturer's instruction. ARPE 19 cells suspended in DMEM/F-12 supplemented with 15% fetal calf serum (2×10^4/100 μl/well) were seeded in 96-well culture plates (8 wells for each condition). After 12 hrs cells were changed to 100 μl serum-free culture medium and cultured for an additional 120 hr supplemented with PDGF-BB (5.0 ng/ml) or TGF-β2 (1.0 ng/ml), with either neutralizing anti-PDGF-B antibody (20 μg/ml) or non-immune IgG (20 μg/ml) as control. At the end of each culture interval, MTT reagent (10 μl) was added to each well and the incubation continued for an additional 5 hr at 37° C. Optical density at 570 nm was measured 4 hr after adding the lysis solution contained in the kit.

ARPE-19 cells [5] = test: EMT and Smad phosphorylation in ARPE-19 cells; assay type: cell-based, human
Description: as §1

RPE cells = test: Wounding of the RPE cell layer in organ-cultured mouse globes; assay type: cell-based; details: TGF-β2 10 ng/ml, WT posterior segments; KO negative
Experimental: Both eyes were enucleated immediately after being sacrificed as described above. Anterior eye segment structures (cornea and lens) and retina were carefully removed from the globe. After the RPE cell layer had been wounded by scraping using a silicone needle, the tissue was cultured in Eagle's medium supplemented with 10% fetal calf serum in the presence or absence of human recombinant TGF-β2 at 10 ng/ml for 48 hr. The tissue was fixed and embedded in paraffin as previously described (Example 1).
Sections (5 μm) were deparaffinized and stained with hematoxylin and eosin (HE) alone or with polyclonal antibodies against collagen type VI (1:100 dilution in PBS, Southern Biotechnology, Birmingham, Ala.), rabbit polyclonal anti-lumican antibody (10 μg/ml (Saika, S. et al. 2000 J Biol Chem 275:2607-2612)), mouse monoclonal anti-αSMA antibody (1:100 dilution in PBS, NeoMarker, Fremont, Calif., USA), goat polyclonal anti-PDGF-B antibody (1:200 dilution in PBS, Santa Cruz), mouse monoclonal anti-proliferating cell nuclear antigen (PCNA) antibody (1:100 dilution in PBS, Santa Cruz) or with non-immune IgGs (control). After binding of FITC-labeled secondary antibodies (1:100 dilution in PBS, Cappel ICN, Aurora, Ohio, USA), the specimens were observed under fluorescent microscopy followed by mounted with VectaShield with nuclear DAPI staining. […]

[6] = system: renal tubular epithelial cells; test: TGF-β1-induced EMT and autoinduction in primary culture of renal tubular epithelial cells; assay type: cell-based, mouse; details: wild-type cells, TGF-β1 10 ng/ml
Experimental: Minced kidneys were washed with 3 changes of cold PBS containing 1 mM EDTA and digested in 0.25% trypsin solution (Gibco BRL, Grand Island, N.Y.) in a shaking incubator at 37° C. for 2 h. Trypsin was neutralized with growth medium (DMEM/10% FBS containing 100 unit/ml penicillin and 0.1 mg/ml streptomycin). The suspension was triturated by pipetting and passed through a 100 μm cell strainer (Becton Dickinson Labware, Franklin Lakes, N.J.). The filtrate consisting mostly of dispersed renal tubules was plated onto culture dishes (Nalge Nunc International, Naperville, Ill.) and 2-well chamber slides (Nunc Lab-Tek II-CC2, Nalge Nunc International), and incubated at 37° C. in a CO2 incubator with medium changes every 2 days. Experiments were carried out in serum-free DMEM. EMT was induced by an addition of 10 ng/ml TGF-β1 (R&D Systems, Minneapolis, Minn.). Mouse monoclonal anti-TGF-β neutralizing antibody (clone: 1D11, R & D Systems) was used at a concentration of 20 μg/ml with mouse IgG (Sigma, St Louis, Mo.) as a control.
Histological sections were prepared from tissues fixed in 4% paraformaldehyde in 0.1 M phosphate buffer, pH 7.4, and embedded in paraffin. Cryosections and bottom sheets of BioFlex were fixed in cold acetone and subjected to indirect immunofluorescence with anti-E-cadherin (clone: DECMA-1, Sigma, St Louis, Mo.), anti-α-SMA (clone: 1A4, NeoMarkers, Fremont, Calif.), anti-mouse type I collagen (Southern Biotechnology, Birmingham, Ala.) and anti-mouse F4/80 antibodies (clone: A3-1, BMA, Augst, Switzerland). As second antibodies, FITC-anti-rat IgG (Sigma), TRITC-anti-mouse IgG (Sigma) or Cy3-anti-goat IgG (Sigma) were used.
Cells and tissues were lysed in buffer containing 1% Nonidet P-40, 25 mM Tris-HCl, pH 7.5, 150 mM NaCl, 10 mM EDTA and 1:50 dilution of a protease inhibitor cocktail (P-2714, Sigma). Proteins were separated by SDS-PAGE, transferred to nitrocellulose membranes, and blocked in 5% skim milk in PBS. After incubation with primary antibodies against E-cadherin (clone: 36, Transduction Laboratories, Lexington, Ky.), α-SMA (clone: 1A4) and actin antibodies (Sc-1616, Santa Cruz Biochemicals, Santa Cruz, Calif.), blots were reacted with POD-conjugated goat anti-mouse IgG secondary antibody (Sigma) and developed with ECL (Amersham Biosciences, Buckingshire, UK).
Total RNA was extracted with TRIzol reagent (Invitrogen, Carlsbad, Calif.). RNA (20 μg/lane), separated in 1% agarose-formaldehyde gels and transferred to Hybond-HX nylon membranes (Amersham). Membranes were hybridized with cDNA probes for mouse Snail and TGF-β1 mRNA labeled with [P^32] dCTP by random primed DNA synthesis using the same primers as above (Rediprime II, Amersham Pharmacia Inc., Piscataway, N.J.). Filters were exposed to X-ray film at −80° C. for 2 to 3 d. […]

α-TN4 = test: Snail up-regulation in α-TN4 lens epithelial cell line after TGF-β addition; assay type: cell-based, mouse; details: prior to up-regulation of αSMA

TGF-β2: exogenous TGF-β2 growth factor; porcine or human recombinant depending on experiment
αSMA expression [1]: express αSMA
lens epithelium morphology and EMT markers (lumican, αSMA, collagen type I) (lens epithelium; 10 days, WT lenses): multilayer of cells of a fibroblastic morphology
expression of lumican (lens epithelium; day 5, WT lenses): up-regulated expression of lumican
time to closure of the defect in wounded monolayer (ARPE-19 cells [2]): ≤ 12 h
amount of type I collagen in culture medium and cell lysate (ELISA) (ARPE-19 cells [3]): increase
PDGF-AB production (ELISA) (ARPE-19 cells [3]; TGF-β2 1.0 ng/ml): significantly increased
concentration of PDGF-BB in culture medium (ELISA) (ARPE-19 cells [3]; TGF-β2 1.0 ng/ml, 96 hrs): approximately 500 pg/ml
PDGF-B protein expression (Western blotting) (ARPE-19 cells [3]; TGF-β2 1.0 ng/ml, beginning about 48-72 hrs after addition): time-dependent up-regulation
PDGF-BB protein secreted into the culture medium, increase above control cultures (ELISA) (ARPE-19 cells [3]; TGF-β2 1.0 ng/ml, confluent cultures): over 2 fold
expression of TGF-β1 in medium (ELISA) (ARPE-19 cells [3]; exogenous TGF-β2, 48 hr): significant increase
growth of the cells (MTT assay) (ARPE-19 cells [4]): inhibited
αSMA expression (ARPE-19 cells [5]; TGF-β2 for 72 hr): clusters of αSMA positive cells
time of highest level of nuclear translocation of Smad3 after addition of TGF-β2 (ARPE-19 cells [5]; immunofluorescence, no longer detectable at 24 hr): 1 h
time to phosphorylation of Smads2/3 after TGF-β2 exposure (Western blotting) (ARPE-19 cells [5]; remained activated up to 48 hrs): ≤ 30 min
αSMA expression in wounded pigment epithelium (RPE cells): expresses αSMA faintly at 24 hr and then clearly at 48 hr

TGF-β1: exogenous TGF-β1 (R&D Systems), growth factor used to induce EMT
Snail mRNA (Northern blot) ([6]; 8 h, not in Smad3-null cells): de novo expression of Snail mRNA
TGF-β1 mRNA expression (autoinduction) ([6]; 24 h, vs non-treated wild-type, not in Smad3-null cells): enhanced expression of TGF-β1 mRNA
cell morphology (phase-contrast microscopy) ([6]; 24 h, Smad3-null cells retained epithelial monolayer): spindle-shaped, fibroblastic appearance
E-cadherin and α-SMA by dual immunofluorescence ([6]; 24 h, not seen in Smad3-null cells): Marked reduction of E-cadherin and de novo expression of α-SMA
amount of type I collagen in culture medium and cell lysate (ELISA) (ARPE-19 cells [3]): increase

TGF-β
earliest time of snail up-regulation after TGF-β addition (α-TN4): 30 min

B1: PDGF-BB: exogenous PDGF-BB, a potent mitogen, 5.0 ng/ml (protein, UniProt P01127 82-190, looked up)
Platelet-derived growth …: SLGSLTIAEPAMIAECKTRTEVFEISRRLIDRTNANFLVWPPCVEVQRCSGCCNNRNVQCRPTQVQLRPVQVRKIEIVRKKPIFKKATVTLEDHLACKCETVAAARPVT
modifications: homodimer PDGF-BB
growth of the cells (MTT assay) (ARPE-19 cells [4]): enhanced
